Assay results published in US10478446B2, “Compounds for use in polycystic kidney disease” (FONDAZIONE CENTRO SAN RAFFAELE OFFICE OF BIOTECHNOLOGY …, priority 2012, dated 2019).
Entries after “also recorded” stand apart in the source; their conditions may differ. Blank lines part the entries; values can stand above or below the molecule they belong to.

How the values were obtained:
[1] = system: Pkd1^flox/−:Ksp-Cre mice; test: 2DG treatment of mice with cystic kidneys; format: in vivo, mouse
Description: For proliferation assays immunostaining was carried our using an anti-Ki67 antibody followed by analysis. For cells, fluorescence was measured on triplicates of 300 cells using the microscope Axioplot (Zeiss). For kidney sections, pictures at 20× were taken using the camera Axio MRc5 (Zeiss) with the microscope Axioplan 2 (Zeiss), positive cells were counted on 6 sections for each group for each experiment using the ImageJ software.
(§1) Generation of Pkd1^flox/−:Ksp-Cre mice was previously described. Briefly, we crossed Pkd1^flox/flox29 and Pkd1^+/−: Ksp-Cre mice in pure C57/B16 genetic background. For treatments 2DG (Sigma-Aldrich) or vehicle (NaCl) were injected subcutaneously daily from P6 until P8 at 500 mg/kg.
(§2) 2DG (Sigma-Aldrich) or vehicle (NaCl) were injected subcutaneously daily from P6 until P8 at 500 mg/kg.
(§3) After sacrifice, kidneys were removed, washed in phosphate-buffered saline (PBS), weighed and fixed in 4% Para formaldehyde (PFA). After incubation in a sucrose in PBS gradient scale from 10% to 30% samples were incubated in 10% glycerol (Sigma) in a mixture of OCT (BIO-OPTICA) and sucrose 30%, finally embedded in OCT. Criostat sections were air-dried 1 h, rehydrated in PBS, incubated in Harris Hematoxylin 1:10 (Sigma Aldrich) for 2 min, washed, incubated in Eosin G (BIO-OPTICA) for 7 min, washed dehydrated and mounted in DEPEX (Sigma).
For Immunohistochemistry 10 μm cryosections were washed in Tween-0.1% in PBS (like all washes), fixed in PAF4%, permeabilized in Triton 0.1% in PBS, incubated in hydrogen peroxide 0.3% for 30 min, blocked for 1 h at room temperature with 5% Normal Goat Serum (Sigma Aldrich) 3% bovine serum albumin (BSA, Sigma) in phosphate-buffered saline, incubated O/N at 4° C. with the Antibody (ab) in blocking buffer diluted at 1:500. Sections were then incubated with the Dako EnVision+System-HRP (Dako). Staining is completed by an incubation with 3,3′ diaminobenzidine tetrahydrochloride (DAB) DAB+Substrate Chromogen System (DakoCytomation) and counterstained with Harris Hematoxylin (Sigma Aldrich). diluted 1/10 for 3 min.
A grid of squares 13.625 μm large was applied to sections of kidneys stained with Hematoxylin-Eosin. Each cross is marked with a dot, number of dots inside the lumen are counted on three litters (218 000 μm^2 for each). The degree of dilatation is determined according to Lu et al., 1999 ^32:1 dot: normal tubules; 2 dots: dilatated tubules; 3-9 dots: Small cysts; ≥10 dots: Cysts.

[2] = system: wt mice (ksp-cre: Pkd1^+/flox); test: 2DG treatment of wt mice; format: in vivo, mouse; settings: 2DG 500 mg/kg daily P6 to P8
Description: as §1, §2, §3

[3] = system: Pkd1^−/− MEFs; test: Western blot of signalling phosphoproteins (pAMPK, pERK, pS6RP, pLKB1); format: cell-based, mouse
Description: (§5) Antibodies anti-p-Akt 5473, anti-p-AMPK-Thr172; anti-AMPK, anti-p-S6RP Ser 235/236; anti-S6Rp; anti-p-ERK T202/Y204 and anti-ERK antibodies were from Cell Signaling Technology and used at 1:1000; anti-LC3 NB100 was from Novus Biologicals; anti-actin and anti-tubulin antibodies were from Sigma Aldrich and used at 1:5000. Anti-ki67 was from Novocastra and was used at 1:400. UO126 and rapamycin (Cell Signaling Technologies) were employed at final concentrations of 30 μM and 20 or 50 nM, respectively. AICAR and Metfomin (Sigma Aldrich) were used at the final concentration of 2 mM, oligomycin (Sigma Aldrich) was used at the final concentration of 30 μg/ml.
For western blot analysis, the cells were lysed [lysis buffer: 250 mM sucrose, 20 mM imidazole and 1 mM EDTA, pH 7.4, 0.5% Triton-X 100, supplemented with Protease Inhibitors Cocktail (Amersham) and phosphatase inhibitors (1 mM final of glycerophosphate, sodium orthovanadate and sodium fluoride)]. Total lysates were quantified and Laemmli buffer was added to reach a 1× final concentration. Proteins were resolved in a SDS-PAGE gel and transferred onto PVDF membranes. Next, 5% milk in TBS-T was used for blocking and for secondary antibody incubations, while 2% BSA in TBS-T was used for incubations with primary antibodies. HRP-conjugated secondary antibodies (from Roche) were visualized using the ECL System (Amersham), which were mixed with Super-Femto ECL System from Pierce when necessary.

[4] = system: Pkd1^+/+ MEFs; settings: UO126
Description: as §5
For western blot analysis, the cells were lysed [lysis buffer: 250 mM sucrose, 20 mM imidazole and 1 mM EDTA, pH 7.4, 0.5% Triton-X 100, supplemented with Protease Inhibitors Cocktail (Amersham) and phosphatase inhibitors (1 mM final of glycerophosphate, sodium orthovanadate and sodium fluoride)]. Total lysates were quantified and Laemmli buffer was added to reach a 1× final concentration. Proteins were resolved in a SDS-PAGE gel and transferred onto PVDF membranes. Next, 5% milk in TBS-T was used for blocking and for secondary antibody incubations, while 2% BSA in TBS-T was used for incubations with primary antibodies. […]

[5] = system: PKD mouse model; settings: Takiar et al. 2011; cited from earlier work
[6] = system: Pkd1^+/+ MEFs; test: ATP content of MEFs after oligomycin; format: cell-based, mouse; settings: oligomycin for 5 h, before treatment 102891+/−1042 RLU
Description: For ATP content evaluation, whole-cell extracts of control and treated MEFs cells were prepared by suspending pellets in lysis buffer as described in Distefano et al, 2009. […] Medium of control and treated MEFs was taken after 24 h at 100% of confluence. The concentration of lactate using EnzyChrom™ L-lactate Assay Kit (BioAssay Systems) and quantified on the final number of cells.

[7] = system: Pkd1^+/+ MEFs; test: Autophagosomes per cell by electron microscopy; format: cell-based, mouse; settings: rapamycin 50 nM
Description: (§4) Cell culture monolayers were fixed for 15 min at 4° C. with PAF 4% and 2.5% glutaraldehyde in 125 mM cacodylate buffer. The monolayers were detached by rubber and centrifuged at high speed. The pellet was post-fixed (1 hour) with 2% OsO4 in 125 mM cacodylate buffer, was washed, dehydrated and embedded in Epon. Conventional thin sections were collect on uncoated grids, stained with uranil and lead citrate and examined in a Leo912 electron microscope.

[8] = system: Pkd1^−/− MEFs; test: Autophagosomes per cell by electron microscopy / autophagy; format: cell-based, mouse; settings: rapamycin 50 nM
Description: as §4

[9] = 2DG 500 mg/kg daily P6 to P8, genotype not stated
[10] = 2DG 500 mg/kg daily P6 to P8, treated vs untreated mutant kidneys
[11] = cystic kidneys treated with 2DG

kidney weight [2]: did not affect
SMILES: O=CC[C@@H](O)[C@H](O)[C@H](O)CO [2DG, 2-deoxyglucose]
proliferation index in the cystic kidneys (Ki67 assay) ([1]; 2DG 500 mg/kg daily P6 to P8, vs vehicle (NaCl)): decreased; also recorded: reduced
proliferation rates in the cyst lining epithelium (Ki67) ([1]; 2DG 500 mg/kg daily P6 to P8, NaCl 28.48+/−5.39%): 10.53+/−4.38%
brain weight normalized by body weight [1, 9]: did not showed effect; also recorded: do not change
liver weight normalized by body weight [1, 9]: did not showed effect; also recorded: do not change
body weight ([1]; 2DG 500 mg/kg daily P6 to P8, mutant mice): did not alter; also recorded: do not change
number of normal and dilated tubules (cystic index) [1, 10]: slightly reduced
number of small cysts (cystic index) [1, 10]: significantly reduced
ratio of kidney weight on body weight ([1]; 2DG 500 mg/kg daily subcutaneously P6 to P8, mutant mice, vs vehicle (NaCl)): effect of the treatment with the 2DG only on mutant animals; also recorded: significantly reduced
number of cysts (cystic index) [1, 11]: significant decrease
number of normal tubules (cystic index) [1, 11]: increased
body weight [2]: did not alter

SMILES: NC(=O)c1ncn([C@@H]2O[C@H](CO)[C@@H](O)[C@H]2O)c1N [AICAR, 5-aminoimidazole-4-carboxamide ribonucleoside]
pAMPK levels ([3]; AICAR (1 mM)): restored; also recorded: increased
pERK ([3]; AICAR (1 mM)): restored to baseline levels; also recorded: inhibited

SMILES: N#CC(=C(/N)Sc1ccccc1N)/C(C#N)=C(/N)Sc1ccccc1N [UO126]
pAMPK ([3]; 30 μM UO126 for 12 h): enhances
pERK ([3]; 30 μM UO126 for 12 h): restores normal
pS6RP ([3]; 30 μM UO126 for 12 h): restores normal
pLKB1 levels (LKB1 phosphorylation at 5428) ([3]; UO126, Pkd1^−/− MEFs): reduced
pLKB1 levels (LKB1 phosphorylation at 5428) [4]: reduced

SMILES: CN(C)C(=N)N=C(N)N [metformin]
pAMPK levels ([3]; metformin (2 mM)): restored; also recorded: increased
pERK ([3]; metformin (2 mM)): restored to baseline levels; also recorded: inhibited
cyst expansion [5]: effectively reduce

SMILES: CC[C@H]1/C=C/C=C/C[C@@H](C)[C@H](O)[C@@](C)(O)C(=O)[C@@H](C)[C@H](O)[C@@H](C)C(=O)[C@@H](C)[C@H](O)[C@@H](C)/C=C/C(=O)O[C@@H]2[C@H](C)[C@H](CC1)O[C@]1(CC[C@H](C)[C@H](C[C@@H](C)O)O1)[C@H]2C [oligomycin]
ATP content [6]: decreased

SMILES: CO[C@H]1C[C@@H]2CC[C@@H](C)[C@@](O)(O2)C(=O)C(=O)N2CCCC[C@H]2C(=O)O[C@H]([C@H](C)C[C@@H]2CC[C@@H](O)[C@H](OC)C2)CC(=O)[C@H](C)/C=C(\C)[C@@H](O)[C@@H](OC)C(=O)[C@H](C)C[C@H](C)/C=C/C=C/C=C/1C [rapamycin]
number of autophagosomes per cells evaluated by EM [7]: 2.87+/−0.55 a.u.
number of autophagosomes per cells evaluated by EM [8]: 0.96+/−0.18 a.u.
